Patent US12629374B2, “Antimalarial agents” (Merck Sharp & Dohme LLC, priority 2020, dated 2026)

The compounds below were run on ring stage parasites (assay: Parasite growth potency assay, 72 hours, LDH readout). Conditions: 72 h, parasite growth measured by LDH assay after 72 hours at 37° C.; 0.7% rings, 2% haematocrit; read-out: EC50.
Assay type: cell-based
Summary of the method: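 Parasite growth was quantified by LDH assay after a −80 °C freeze-thaw. Before that, compound was incubated for 72 h at 37 °C under humidified gas with ring-stage cultures adjusted to 0.7% parasitemia and 2% haematocrit in serum- and albumax-supplemented RPMI-Hepes.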

In order of rising EC50:
1. CCC1(CC)CC(=O)N([C@H](CC(C)C)c2cccc(C(=O)N[C@H]3CCOc4ccccc43)c2)C(=N)N1 [Example 14A, [1-[1-[3-[[(4S)-chroman-4-yl]carbamoyl]phenyl]-3-methyl-butyl]-4,4-diethyl-6-oxo-hexahydropyrimidin-2-ylidene]ammonium; 2,2,2-trifluoroacetate]  0.2 nM
2. CCC[C@H](c1cccc(C(=O)N[C@H]2CCOc3ccccc32)c1)N1C(=N)NC(CC)(CC)CC1=O [Example 13A, [1-[1-[3-[[(4S)-chroman-4-yl]carbamoyl]phenyl]butyl]-4,4-diethyl-6-oxo-hexahydropyrimidin-2-ylidene]ammonium; 2,2,2-trifluoroacetate]  0.3 nM
3. CCC1(CC)CC(=O)N([C@H](c2ccccc2)c2cccc(C(=O)N[C@@H]3c4ccccc4C[C@H]3O)c2)C(=N)N1 [Example 16, [4,4-diethyl-1-[[3-[[(1R,2R)-2-hydroxyindan-1-yl]carbamoyl]phenyl]-phenyl-methyl]-6-oxo-hexahydropyrimidin-2-ylidene]ammonium; 2,2,2-trifluoroacetate]  0.3 nM
4. CCC1(CC)CC(=O)N([C@H](c2ccccc2)c2cccc(C(=O)N[C@H]3CCOc4ccccc43)c2)C(=N)N1 [Example 4A, [1-[[3-[[(4S)-chroman-4-yl]carbamoyl]phenyl]-phenyl-methyl]-4,4-diethyl-6-oxo-hexahydropyrimidin-2-ylidene]ammonium; 2,2,2-trifluoroacetate]  0.4 nM
5. CC(C)[C@]1(C)CC(=O)N([C@H](c2ccccc2)c2cccc(C(=O)N[C@H]3CCOc4ccccc43)c2)C(=N)N1 [Example 9A, [(4S)-1-[(R)-[3-[[(4S)-chroman-4-yl]carbamoyl]phenyl]-phenyl-methyl]-4-isopropyl-4-methyl-6-oxo-hexahydropyrimidin-2-ylidene]ammonium; 2,2,2-trifluoroacetate]  0.5 nM
6. CCC1(CC)CC(=O)N([C@H](COC)c2cccc(C(=O)N[C@H]3CCOc4ccccc43)c2)C(=N)N1 [Example 19, [1-[1-[3-[[(4S)-chroman-4-yl]carbamoyl]phenyl]-2-methoxy-ethyl]-4,4-diethyl-6-oxo-hexahydropyrimidin-2-ylidene]ammonium; 2,2,2-trifluoroacetate]  0.6 nM
7. CCC1(CC)CC(=O)N(Cc2cc(F)cc(C(=O)N[C@H]3CCOc4ccccc43)c2)C(=N)N1 [Example 12, [1-[[3-[[(4S)-chroman-4-yl]carbamoyl]-5-fluoro-phenyl]methyl]-4,4-diethyl-6-oxo-hexahydropyrimidin-2-ylidene]ammonium; 2,2,2-trifluoroacetate]  1.4 nM
8. CCC1(CC)CC(=O)N(Cc2cccc(C(=O)N[C@H]3CCOc4ccccc43)c2)C(=N)N1 [Example 11, [1-[[3-[[(4S)-chroman-4-yl]carbamoyl]phenyl]methyl]-4,4-diethyl-6-oxo-hexahydropyrimidin-2-ylidene]ammonium; 2,2,2-trifluoroacetate]  1.5 nM
9. CCC1(CC)CC(=O)N(Cc2cccc(C(=O)N[C@@H]3c4ccccc4C[C@H]3O)c2)C(=N)N1 [Example 15, [4,4-diethyl-1-[[3-[[(1R,2R)-2-hydroxyindan-1-yl]carbamoyl]phenyl]methyl]-6-oxo-hexahydropyrimidin-2-ylidene]ammonium; 2,2,2-trifluoroacetate]  2.6 nM
10. CCC1(CC)CC(=O)N(Cc2ccc(F)c(C(=O)N[C@H]3CCOc4ccccc43)c2)C(=N)N1 [Example 21, [1-[[3-[[(4S)-chroman-4-yl]carbamoyl]-4-fluoro-phenyl]methyl]-4,4-diethyl-6-oxo-hexahydropyrimidin-2-ylidene]ammonium; 2,2,2-trifluoroacetate]  3.5 nM
11. N=C1N[C@@](CC2CC2)(c2ccccc2)CC(=O)N1Cc1cccc(C(=O)N[C@@H]2c3ccccc3C[C@H]2O)c1 [Example 17, [(4R)-4-(cyclopropylmethyl)-1-[[3-[[(1R,2R)-2-hydroxyindan-1-yl]carbamoyl]phenyl]methyl]-6-oxo-4-phenyl-hexahydropyrimidin-2-ylidene]ammonium; 2,2,2-trifluoroacetate]  3.7 nM
12. N=C1N[C@@](CC2CC2)(c2ccccc2)CC(=O)N1[C@H](c1cccnc1)c1cccc(C(=O)N[C@H]2CCOc3ccccc32)c1 [Example 8, [(4R)-1-[[3-[[(4S)-chroman-4-yl]carbamoyl]phenyl]-pyridin-1-ium-3-yl-methyl]-4-(cyclopropylmethyl)-6-oxo-4-phenyl-hexahydropyrimidin-2-ylidene]ammonium; 2,2,2-trifluoroacetate]  4.2 nM
13. CC(C)[C@]1(C)CC(=O)N(Cc2cccc(C(=O)N[C@@H]3c4ccccc4C[C@H]3O)c2)C(=N)N1 [Example 10, [(4S)-1-[[3-[[(1R,2R)-2-hydroxyindan-1-yl]carbamoyl]phenyl]methyl]-4-isopropyl-4-methyl-6-oxo-hexahydropyrimidin-2-ylidene]ammonium; 2,2,2-trifluoroacetate]  7.9 nM
14. CCC1(CC)CC(=O)N(Cc2cncc(C(=O)N[C@H]3CCOc4ccccc43)c2)C(=N)N1 [Example 24, [1-[[5-[[(4S)-chroman-4-yl]carbamoyl]-3-pyridyl]methyl]-4,4-diethyl-6-oxo-hexahydropyrimidin-2-ylidene]ammonium; 2,2,2-trifluoroacetate]  10.1 nM
15. CCC1(CC)CC(=O)N(Cc2cccc(C(=O)N[C@H]3CCOc4ccccc43)c2F)C(=N)N1 [Example 20, [1-[[3-[[(4S)-chroman-4-yl]carbamoyl]-2-fluoro-phenyl]methyl]-4,4-diethyl-6-oxo-hexahydropyrimidin-2-ylidene]ammonium; 2,2,2-trifluoroacetate]  10.9 nM
16. CCC1(CC)CC(=O)N(Cc2cc(C(=O)N[C@H]3CCOc4ccccc43)ccn2)C(=N)N1 [Example 23, [1-[[4-[[(4S)-chroman-4-yl]carbamoyl]-2-pyridyl]methyl]-4,4-diethyl-6-oxo-hexahydropyrimidin-2-ylidene]ammonium; 2,2,2-trifluoroacetate]  11.5 nM
17. N=C1N[C@@](CC2CC2)(c2ccccc2)CC(=O)N1Cc1cc(F)cc(C(=O)N[C@H]2CCOc3ccccc32)c1 [Example 5A, [(4R)-1-[[3-[[(4S)-chroman-4-yl]carbamoyl]-5-fluoro-phenyl]methyl]-4-(cyclopropylmethyl)-6-oxo-4-phenyl-hexahydropyrimidin-2-ylidene]ammonium; 2,2,2-trifluoroacetate]  16.2 nM
18. CCC1(CC)CC(=O)N(Cc2ccnc(C(=O)N[C@H]3CCOc4ccccc43)c2)C(=N)N1 [Example 22, [1-[[2-[[(4S)-chroman-4-yl]carbamoyl]-4-pyridyl]methyl]-4,4-diethyl-6-oxo-hexahydropyrimidin-2-ylidene]ammonium; 2,2,2-trifluoroacetate]  17.2 nM
19. CC(C)[C@]1(C)CC(=O)N([C@H](c2ccccc2)c2cccc(C(=O)N[C@@H]3CCOc4ccccc43)c2)C(=N)N1 [Example 9B, [(4S)-1-[(R)-[3-[[(4R)-chroman-4-yl]carbamoyl]phenyl]-phenyl-methyl]-4-isopropyl-4-methyl-6-oxo-hexahydropyrimidin-2-ylidene]ammonium; 2,2,2-trifluoroacetate]  19.2 nM
20. CC(C)[C@]1(C)CC(=O)N(Cc2cccc(C(=O)N[C@@H]3c4ccccc4C[C@@H]3O)c2)C(=N)N1 [Example 18, [(4S)-1-[[3-[[(1R,2S)-2-hydroxyindan-1-yl]carbamoyl]phenyl]methyl]-4-isopropyl-4-methyl-6-oxo-hexahydropyrimidin-2-ylidene]ammonium; 2,2,2-trifluoroacetate]  21.5 nM
21. CCC1(CC)CC(=O)N([C@H](c2ccccc2)c2cccc(C(=O)N[C@@H]3CCOc4ccccc43)c2)C(=N)N1 [Example 4B, [1-[[3-[[(4R)-chroman-4-yl]carbamoyl]phenyl]-phenyl-methyl]-4,4-diethyl-6-oxo-hexahydropyrimidin-2-ylidene]ammonium; 2,2,2-trifluoroacetate]  35.4 nM
22. C[C@H](c1cccc(C(=O)N[C@H]2CCOc3ccccc32)c1)N1C(=N)N[C@@](CC2CC2)(c2ccccc2)CC1=O [Example 7, [(4R)-1-[1-[3-[[(4S)-chroman-4-yl]carbamoyl]phenyl]ethyl]-4-(cyclopropylmethyl)-6-oxo-4-phenyl-hexahydropyrimidin-2-ylidene]ammonium; 2,2,2-trifluoroacetate]  39.2 nM
23. CCC[C@@H](c1cccc(C(=O)N[C@H]2CCOc3ccccc32)c1)N1C(=N)NC(CC)(CC)CC1=O [Example 13B, [1-[1-[3-[[(4S)-chroman-4-yl]carbamoyl]phenyl]butyl]-4,4-diethyl-6-oxo-hexahydropyrimidin-2-ylidene]ammonium; 2,2,2-trifluoroacetate]  43.8 nM
24. CCC1(CC)CC(=O)N([C@@H](CC(C)C)c2cccc(C(=O)N[C@H]3CCOc4ccccc43)c2)C(=N)N1 [Example 14B, [1-[1-[3-[[(4S)-chroman-4-yl]carbamoyl]phenyl]-3-methyl-butyl]-4,4-diethyl-6-oxo-hexahydropyrimidin-2-ylidene]ammonium; 2,2,2-trifluoroacetate]  55 nM
25. N=C1N[C@@](CC2CC2)(c2ccccc2)CC(=O)N1Cc1cc(F)cc(C(=O)N[C@@H]2CCOc3ccccc32)c1 [Example 5B, [(4R)-1-[[3-[[(4R)-chroman-4-yl]carbamoyl]-5-fluoro-phenyl]methyl]-4-(cyclopropylmethyl)-6-oxo-4-phenyl-hexahydropyrimidin-2-ylidene]ammonium; 2,2,2-trifluoroacetate]  57.4 nM
26. N=C1N[C@@](CC2CC2)(c2ccccc2)CC(=O)N1Cc1cccc(C(=O)N[C@H]2CCOc3ccccc32)c1 [Example 6A, [(4R)-1-[[3-[[(4S)-chroman-4-yl]carbamoyl]phenyl]methyl]-4-(cyclopropylmethyl)-6-oxo-4-phenyl-hexahydropyrimidin-2-ylidene]ammonium; 2,2,2-trifluoroacetate]  58.8 nM
27. N=C1N[C@@](CC2CC2)(c2ccccc2)CC(=O)N1Cc1cccc(C(=O)N[C@@H]2CCOc3ccccc32)c1 [Example 6B, [(4R)-1-[[3-[[(4R)-chroman-4-yl]carbamoyl]phenyl]methyl]-4-(cyclopropylmethyl)-6-oxo-4-phenyl-hexahydropyrimidin-2-ylidene]ammonium; 2,2,2-trifluoroacetate]  83.9 nM
